Results on 89 compounds are retold here after a melting point compilation (Tetko et al.; mined from patent text by program, amines drawn as free bases though some values may be those of a salt).

For orientation: melting point means the temperature, or range, at which the solid turns liquid.

Take `CCOC(=O)C1=C(C)NN=C(C(=O)OC)C1c1ccccc1C` (centres undefined): the melting point was found to be 165 °C.
For `O=C(NC(=O)c1c(Cl)cccc1Cl)Nc1cc(-c2ccc(-c3ccccc3)cc2)on1`, the melting point was 225 to 227 °C.
The same measure for `COc1cc(NS(=O)(=O)c2ccc(N3CCNC3=O)cc2)cc(OC)c1`: 200 to 201 °C; for `CCOC(=O)N[C@@H]1[C@H](O)C(=O)N2[C@H](c3ccccc3)OC[C@@H]12`: 176 to 178 °C.
In the case of `CC(=O)N(O)C(C)/C=C/c1cccc(Oc2ccc(Cl)cc2)c1` (centres undefined) it was 86 to 87 °C; in that of `CN(C)S(=O)(=O)c1cc([N+](=O)[O-])ccc1C(=O)O`, 160 to 163 °C.
On to `CCCN=C(N)Nc1ccnc(SC)n1`, for which the melting point is 177 to 178 °C.
In the case of `NS(=O)(=O)CS(=O)c1ccc(Cl)c(Cl)c1` (centres undefined) it was 205 to 207 °C; in that of `CSC(=NC(=O)OC(C)(C)C)NC(=O)OC(C)(C)C`, 123 to 124 °C; in that of `CCS(=O)(=O)Nc1cc(-n2cnc(C(F)(F)F)cc2=O)c(F)cc1C#N`, 170 °C.
As for `CC(C)n1cnc2c(Nc3cccc(F)c3)nc(NCCO)nc21`, the melting point was determined as 142 °C.
The same measure for `Cc1cccc(C2(C#N)C3CC4CC(C3)CC2C4)c1` (centres undefined): 85 to 86 °C; for `Cc1cnc(CNC(=O)c2sc(-n3cnn(Cc4ccc(F)cc4)c3=O)nc2C)cn1`: 188 to 189 °C.
The same measure for `Nc1c([N+](=O)[O-])ccc(Sc2ccccc2)c1Cl`: 144 to 146 °C; for `CCC(C(=O)N(C)C)n1cc(C)c(-c2ccccc2)n1` (centres undefined): 86 to 88 °C; for `CC(C(=O)O)c1ccc2c(-c3ccc(F)cc3)noc2c1` (centres undefined): 151 to 154 °C.
In the case of `Cc1ccc(-c2csc(-c3ccc(C(=O)O)cc3)n2)cc1C` it was 261 to 262 °C.
Compound `CCNC(=O)c1c([Si](C)(C)C)ccc(SC)c1Cl` displayed a melting point of 137 to 139 °C.
In the case of `CC(C)C(=O)ON(C(=O)NN(C)C)C1c2ccccc2Oc2ccccc21` it was 131 to 132 °C; in that of `COc1ccc2[nH]c(S(=O)Cc3ncc(C)c(N4CCOCC4)c3Cl)nc2c1` (centres undefined), 147 to 148 °C.
Consider `O=C1CCC(CCC(=O)OCc2ccc(Cl)cc2)N1` (centres undefined), for which the melting point lay within 63 to 64 °C.
The same measure for `Cn1cc(CCNC(=O)OC(C)(C)C)c2cc(S(=O)(=O)c3ccccc3)ccc21`: 127 to 131 °C.
`Cc1cccc(C2OCC(OCc3ccccc3)CO2)c1` (centres undefined) displayed a melting point of 68 to 70 °C.
In the case of `CCOC(=O)c1cccc(-c2ccc(Cl)c3cc(Cc4ccc(F)c(F)c4)sc23)c1` it was 124 to 125 °C.
The same measure for `CC(C)(C)NC(=O)[C@@H]1C[C@H](Cl)CN1C(=O)[C@@H](O)[C@H](Cc1ccccc1)NC(=O)[C@H](CCS(C)(=O)=O)NC(=O)OCc1ccccc1`: 99 to 103 °C; for `CCOC(=O)c1cnoc1-c1ccc(Cl)cc1Cl`: 82 to 84 °C; for `CC(C)Cn1c(=O)n(C)c(=O)c2c(CCCCC(=O)O)n(Cc3cccc4ccccc34)cc21`: 146 to 147 °C.
The same measure for `CNC(=O)N1CCN(C(=O)CN2CCCC2=O)CC1`: 203 to 205 °C; for `CC1Cc2cc(NS(C)(=O)=O)ccc2OC12CCC(N1CCc3ccccc3C1)CC2` (centres undefined): 135 °C; for `O=c1c2ccccc2ncn1NC(=S)Nc1ccc(Br)cc1`: 189 to 190 °C.
Take `CSC1=C(c2ccc(O)cc2)C(=O)c2ccc(O)cc21`: the melting point lay in the range of 108 to 110 °C.
The same measure for `COC(=O)[C@@H]1CSCN1S(=O)(=O)c1ccc(Cl)c(COc2cccc3c(-n4ccnc4)cc(C)nc23)c1Cl`: 60 °C.
In the case of `O=[N+]([O-])c1cccc(C2Nn3cc(-c4ccc(-c5ccccc5)cc4)nc3S2)c1` (centres undefined) it was 263 to 265 °C.
The same measure for `NS(=O)(=O)c1ccc(-c2cnn(-c3ccc(F)cc3)c(=O)c2-c2ccc(F)cc2)cc1F`: 222 to 224 °C; for `CCOC(=O)c1ncc2[nH]c3ccc(-c4ccccc4)cc3c2c1C`: 241 to 242 °C.
Consider `COc1ccccc1CNc1ccc2cc(Nc3nc4cc(C)ccc4o3)ccc2n1`, for which the melting point turned out to be 220 °C.
Take `COC(=O)C1C(=O)CCC1CSc1ccccc1` (centres undefined): the melting point is 41 to 42 °C.
Take `CC1(C)CCC(=O)Nc2ccc([N+](=O)[O-])cc21`: the melting point came to 208 °C.
`CN1CCC(N(C)S(=O)(=O)c2ccc(Nc3nccc(Nc4ccc(F)cc4)n3)cc2)CC1`: the melting point was 205 to 210 °C.
In the case of `COc1cc(OC)c(C)c(C(=O)OCC(Cl)(Cl)Cl)c1C` it was 129 °C; in that of `c1cc(NC2=NCCN2)ccc1Cc1cc(OC2CCCC2)cs1`, 142 to 143 °C; in that of `O=C(Nc1cccnn1)N1CCN(c2nc(-c3cccc(F)c3)cs2)CC1`, 176 to 177 °C.
`CC(=O)OC1N=C(c2ccccc2)c2cc(Cl)ccc2-c2c1nc(C)[nH]c2=O` (centres undefined) yielded a melting point greater than 320 °C.
The same measure for `CC1=Cc2cc(-c3nnnn3C)ccc2OC1(C)C`: 127 to 130 °C; for `O=C(NC(=O)c1ccccc1Cl)Nc1cnc(C(F)(F)F)cn1`: 219 to 220 °C.
The same measure for `COc1ccc(Cn2c(=O)c3ccccc3n(CCCCN3CCC(OC(c4ccccc4)c4ccccc4)CC3)c2=O)cc1`: 99 to 100 °C; for `CCC1C(=O)CCC(Cc2ccc(OC)cc2)(Cc2ccc(OC)cc2)C1C` (centres undefined): 106 to 107 °C; for `NC1=NCC(COc2cccc(Cl)c2)O1` (centres undefined): 128 °C.
For the compound `O=c1[nH]c2ccc(Cl)cc2c(=O)n1CCCCN1CC=C(c2ccccc2)CC1`, the melting point lay within 214 to 222 °C.
In the case of `O=C(O)c1cn(C2CC2)c2nc(N3CCC(c4ccncc4)C3)c(F)cc2c1=O` (centres undefined), the melting point was in the range of 223 to 225 °C.
In the case of `COC(CNC(=O)CCN1C(=O)N(C)C(=O)C1(C)C)OC` it was 86.4 °C; in that of `CCOC(=O)NC(=N)c1ccc(N2CCN(c3ccc(CCC(=O)OC)cc3)S2(=O)=O)cc1`, greater than 275 °C.
For the compound `COC(=O)c1cccc2c([N+](=O)[O-])cccc12`, the melting point is 105 °C.
The same measure for `Cc1cc(OCC(O)CCl)c2cn[nH]c2c1` (centres undefined): 171 to 172 °C; for `N#CC1(c2ccc(Cl)cc2)C2CC3CC(C2)CC1C3` (centres undefined): 132 to 133 °C; for `CCCOC(=NNC(=O)OC)OCCC`: 38.1 to 38.3 °C.
In the case of `Nc1cc(OCC(CO)OCP(=O)(O)O)nc(N)n1` (racemic), the melting point was 213 °C.
As for `COC(=O)C1=C(c2ccccc2)C(c2ccccc2)OC1=O` (centres undefined), the melting point is 113 to 115 °C.
The compound `Cc1c(Cc2cccc3ccccc23)c(=O)oc2cc(OCc3nnn[nH]3)cc(OCc3nnn[nH]3)c12` showed a melting point of 164 to 174 °C.
The same measure for `C[C@H](/C=C\c1ccc(Cc2ccc(F)cc2)s1)N(O)C(N)=O`: 123 to 124 °C; for `O=C(CBr)CCc1ccc(I)cc1`: 76 to 77 °C; for `COc1cc(SCc2sc(-c3ccc(C(F)(F)F)cc3)nc2C)c(C)cc1OCC(=O)O`: 165 to 167 °C.
`O=C(OC1CCN(Cc2ccccc2)CC1)c1ccccc1[N+](=O)[O-]` displayed a melting point of 98 to 99 °C.
On to `CCOC(=O)c1cc2cc(OCOC)ccc2s1`, for which the melting point fell in the range of 74 to 75 °C.
For the compound `CCN(CC)C(=O)Cc1ccc(O)c(C(C)C)c1`, the melting point lay in the range of 112 to 113 °C.
The same measure for `CN(Cc1cccc2ccccc12)c1nc(N2CCC(N(C)C)CC2)nc2c(N3CCOCC3)ncnc12`: 124 to 126 °C; for `CCN(CC)c1ccc(-c2cn(-c3ccc(C4=C(C#N)C(=C(C#N)C#N)OC4(C)C)cc3)nn2)cc1`: 275 °C; for `CC(C)(O)Cc1cccc(C(F)(F)F)c1`: 55 to 56 °C.
In the case of `Cc1cc2c(c3c1C(c1ccc(C(C)C)cc1)CO3)CCC2` (centres undefined) it was 77 to 78 °C; in that of `CC(=O)ONC(=N)c1ccc(-c2ccc(-c3ccc(C(=N)NOC(C)=O)o3)o2)cc1`, 212 to 213 °C.
`COC1CCc2c(cc(-c3ccccc3)n2-c2ccc(O)c(C(=O)O)c2)C1` (centres undefined) displayed a melting point of 207 to 210 °C.
For the compound `CCOC(=O)Cc1ccc(NC(=O)c2cc(C(C)C)c(C(C)C)o2)cc1`, the melting point was 91.5 to 92.5 °C.
The same measure for `COC1(c2ccccc2)CCc2c(C)c(O)c(C)c(C)c2O1` (centres undefined): 190 to 192 °C; for `CCCC1(C2=CCN(C)CC2)c2ccccc2CCc2ccccc21`: 122 to 124 °C.
The same measure for `COC(=O)NN=C(OC)OC`: 78.5 to 81.5 °C; for `N#Cc1ncccc1OC1SCC(O)C(O)C1O` (centres undefined): 174 °C.
For `O=C(c1ccccc1)N1CCC(Cc2ccccc2)(C(=O)O)CC1`, the melting point was 183 to 189 °C.
In the case of `CCSc1cc(C)nc(SCC)c1NC(=O)CCCCSc1nc2ccccc2o1` it was 122 to 123 °C; in that of `Cc1ccc2ccc(O)c(CC(=O)O)c2c1`, 138 to 140 °C.
In the case of `O=C(CO)Nc1nc(CN2CCC(c3c[nH]c4ccccc34)CC2)cs1` it was 185 to 188 °C.
In the case of `Cc1ccc(-c2nc(-c3ccc(C)cc3C)nc(-c3ccc(OCCCCCCO)cc3O)n2)c(C)c1` it was 117 to 118 °C.
In the case of `O=C(CC1CCCCC1)Nc1ccc2oc3c(c2c1)CCCCC3`, the melting point lay in the range of 188 to 189 °C.
The same measure for `CCc1c(-c2ccc(O)cc2)c2ccc3c(NC(C)=O)ccc1n32`: 147 to 149 °C; for `CC(C)CCN1C(=O)C(NC(=O)Nc2cccc(N(C)C)c2)C(=O)N(CC23CC4CC(CC(C4)C2)C3)c2ccccc21` (centres undefined): 226 to 227 °C.
In the case of `CC(C)Oc1cccc2c1C1=NCCN1c1c(-c3noc(C4CC4)n3)ncn1-2` it was 211 to 214 °C.
As for `COc1ccc(C2(C#Cc3cccc(-c4noc(C)n4)c3)CCCC(=O)C2)cc1OC1CCCC1` (centres undefined), the melting point lay within 116 to 118 °C.
The same measure for `CC1(n2cc(C(=O)O)c(=O)c3cc(F)c(N4CCC(N)C4)c(F)c32)CC1` (centres undefined): greater than 300 °C; for `O=C(O)CCCCCc1nc2ccccc2o1`: 82 °C; for `Cc1ccnc(N2CCN(CCc3c(C)n4c5c(cc(NC(=O)c6ccccc6)cc35)CCC4)CC2)c1`: 218 °C.
